# From patent US9499790B2, “Method for promoting differentiation of pluripotent stem cells into cardiac muscle cells” (Kyoto University, priority 2010, dated 2016)
# Legend:
# Type in all cases: cell-based
# [1] = tested on: monkey ES cells (CMK 6.4 cynomolgus monkey ES cell line); experiment: Cardiac muscle cell differentiation of monkey ES cells, compound day 4 to 8, GFP fluorescence at day 10 (MetaMorph); conditions: for effect of promoting cardiac muscle cell differentiation, carbon chain length (n) series: FIG. 16
# Excerpt: Compounds substituted at the position R7 of Formula 1, which corresponds to Cl of KY02111, were synthesized and examined for the effect of promoting cardiac muscle cell differentiation in a dose-dependent manner in monkey ES cells as described in Example 2. Specifically, a vector expressing green fluorescent protein (GFP) under control of promoter of α-MHC gene, a marker of cardiac muscle cell differentiation, was introduced into monkey ES cells (CMK 6.4 cynomolgus monkey ES cell line) and the cells were seeded on 6-well culture plates (Asahi Glass/5816-006: Ezview culture plate) in 4.0×10^5 cells/well, and cultured in an IMDM-based differentiation medium for cardiac muscle cells (200 ml IMDM (Sigma) containing 50 ml bovine fetal serum (GIBCO), 2.5 ml MEM non-essential amino acid solution (Sigma), 2.5 ml penicillin-streptomycin (GIBCO), 2.5 ml 200 mM L-glutamine, 2 μl 2-mercaptoethanol). Each compound was added to the cells during day 4 to day 8 of the cardiac muscle cell differentiation culture, and the GFP fluorescence was analyzed at day 10 by using MetaMorph imaging system.
# [2] = tested on: Monkey ES cells; experiment: Cardiac muscle cell differentiation of monkey ES cells, 6-well plate, GFP expression observed at day 14
# Excerpt: In the same manner as Example 2, the effects of promoting cardiac muscle cell differentiation were compared among KY02111 and N11474, known Wnt signaling inhibitors (IWP2, XAV939 and IWR1), proteins known to be effective in promoting cardiac muscle cell differentiation (G-CSF, IGFBP4, Dkk1 and cytokines (a mixture of bFGF, BMP4, VEGF, DKK1 and Activin A)).
# The effect of BIO, a Wnt signaling activator, on the effect of promoting cardiac muscle cell differentiation of KY02111, XAV939 and IWP2 was analyzed. […]
# [3] = tested on: Wnt signaling target genes in human iPS cells; experiment: Gene expression analysis by DNA array and quantitative polymerase chain reaction; conditions: FIG. 9
# Method: (in the order of the genes whose expression were reduced most 12 hours later) HOXA1, MSGN1, NKD1, T, TNFRSF11B, DKK1, DKK4, CDX2, MSX1, NODAL, FGF4, PAPPA, PRRX1, LRAT, CYP1B1, SLC34A2, AXIN2, LGL1, SPS, MIXL1, APCDD1 and DSEL. […] The analyzed genes were as follows: MSGN1, HOXA1; T, MIXL1; Dkk1, AXIN2; NODAL and FGF4 (all known as Wnt signaling target genes).
# [4] = nitrovin 1 μM during day 8 to 12, singly
molecule,measurement,setting,value
"COc1ccc(CC(=O)Nc2nc3ccc(I)cc3s2)cc1OC [SO3031, 2-(2-(3,4-dimethoxyphenyl)acetamide)-6-iodobenzothiazole]","effect of promoting cardiac muscle cell differentiation, carbon chain length (n) series",[1],higher effect compared to KY02111
"COc1ccc(CCCC(=O)Nc2nc3ccc(I)cc3s2)cc1OC [SO3042, 2-(4-(3,4-dimethoxyphenyl)butamide)-6-iodobenzothiazole]","effect of promoting cardiac muscle cell differentiation, SO2031 versus SO3042","[1]; 0.1 μM, 0.4 μM and 2 μM, separate experiment, FIG. 17",comparable effect
same,"effect of promoting cardiac muscle cell differentiation, carbon chain length (n) series",[1],higher effect compared to KY02111
same,effect compared to SO2031 (KY02-I),[1]; high dose (10 μM or 30 μM),1.3 times
same,"effect of promoting cardiac muscle cell differentiation, SO3042 versus SO2031","[1]; higher dose (10 μM), FIG. 17",slightly higher than that of SO2031
same,effect compared to SO3031 (KY01-I),[1]; low dose (0.1 μM),2.8 times
"Oc1nc(-c2ccc(C(F)(F)F)cc2)nc2c1CSCC2 [XAV939, reference compound]",effect of BIO on the compound's effect of cardiac muscle cell differentiation (GFP expression),"[2]; BIO 5 μM added together with the compound during day 4 to 10, GFP at day 14",inhibited
same,"expressions of MSGN1, HOXA1, T, MIXL1, Dkk1, AXIN2, NODAL and FGF4 (Wnt signaling target genes) by qPCR",[3],reduced
"N=C(N)NN=C(/C=C/c1ccc([N+](=O)[O-])o1)/C=C/c1ccc([N+](=O)[O-])o1 [nitrovin, reference compound]",increase in the GFP expression level,"[2]; 5 μM during day 8 to 14, GFP at day 14",about 400%
same,increase in the GFP expression level versus Control (DMSO),[2]; [4],about 3 times
same,proportion of beating colonies,[2]; [4],about 16%
same,ratio of number of GFP colonies,[2]; [4],about 22%
"G-CSF: granulocyte-colony stimulating factor (protein, UniProt P09919 31-207, looked up) Granulocyte …: TPLGPASSLPQSFLLKCLEQVRKIQGDGAALQEKLVSECATYKLCHPEELVLLGHSLGIPWAPLSSCPSQALQLAGCLSQLHSGLFLYQGLLQALEGISPELGPTLDTLQLDVADFATTIWQQMEELGMAPALQPTQGAMPAFASAFQRRAGGVLVASHLQSFLEVSYRVLRHLAQP",increase in the GFP expression level,"[2]; 5 ng/ml during day 4 to 10, GFP at day 14",about 250%
